According to patent publication US4450173A, “Compounds and method for treatment or prophylaxis of cardiac disorders” (American Hospital Supply Corporation, priority 1982, dated 1984):
Counter-ions that a name gives are not always drawn. Like-named read-outs stand apart in the source and are kept apart here.

Key:
[1] = test system: heart rate response to isoproterenol (β-receptor mediated tachycardia); test: Duration of β-blockade in vivo in anesthetized dogs, 40-minute infusion; set-up: species or system dog; settings: for 80% Recovery Time: after 40-minute infusion, normalized to 50% inhibition; for ED50: Canis lupus familiaris, iv, 40 min, read-out: Potency (mg/kg/40 min)
Method: (§1) The duration of β-blockade was determined in vivo using pentobartital-anesthetized dogs instrumented for measurement of heart rate using a Beckman® cardiotachometer triggered electronically by a phasic aortic blood pressure signal. Both vagus nerves were severed in the cervical region and the animals were mechanically ventilated. Two experimental designs were used. The first employed a 40-minute infusion of test compound and the second used a 3-hour infusion of test compound. In the 40-minute model, isoproterenol was infused into a foreleg vein at the rate of 0.5 μg/kg/min to induce a β-receptor mediated tachycardia. Various doses of test compound are then infused into a femoral vein over a period of 40 minutes. This infusion was then terminated and recovery from blockade was quantitated. […] This cumulative dose is expressed as mg/kg and is an indication of potency. The time period required for 80% recovery of heart rate response for each dose of test drug was also measured to quantitate duration of action. […] Test compounds were dissolved in 0.9% NaCl and infused at a rate of 0.05 mL/kg/min or less. In the 3-hour infusion model, bolus doses of isoproterenol (0.4 μg/kg) were used to assess the degree of β-blockade and recovery from β-blockade after termination of the infusion. The doses were spaced at 10-minute intervals and were given before, during and following the infusion of test compounds. The infusion rate was adjusted so that at the end of the 3-hour infusion period the degree of isoproterenol inhibition averaged about 50% of control.

[2] = test system: guinea pig right atria and guinea pig tracheal strips; test: Cardioselectivity, KB tracheal/KB atrial; assay type: cell-based
Method: Several of the compounds of the present invention were tested for β-blocking activity in vitro using guinea pig right atria and guinea pig tracheal strips mounted in a tissue bath containing oxygenated (95% O2 -5% CO2) Krebs physiological salt solution at 37° C. Each tissue was suspended between a fixed glass rod and a Statham® Universal Transducer connected to a Beckman® recorder. Atria were allowed to beat spontaneously under a loading tension of approximately 0.5 gm. Intrinsic depressant for stimulant activity was determined for each compound by progressively increasing concentrations in the tissue baths at 60-minute intervals. Tissues were not washed between increments. […]. Changes in rate in response to isoproterenol were measured in the absence and presence of test compounds. Spiral strips of guinea pig trachea were suspended under 5 gm resting tension and incubated with phentolamine, tropolone and cocaine. Active tension was generated by addition of carbachol (3.0×10^-7 M) and decreases in tension in response to isoproterenol were quantitated. Cumulative concentration-response curves were produced with isoproterenol both before and after 60 minute incubation of test compounds with atria and trachea. The blocking potency of test compounds was estimated by computing pA2 values (-log KB) by the method of Furchgott, The Pharmacological Differentiation of Adrenergic Receptors, Ann. N.Y. Acad. Sci.; 139: 553-570 (1967). Comparison of blockade of right atrial and tracheal responses to isoproterenol permitted assessment of cardioselectivity of test compounds; […]. A ratio greater than one indicates cardioselectivity. […]

[3] = target: guinea pig tracheal strips (Cavia porcellus, UniProt Q8K4Z4); test: cell-based; assay type: cell-based; settings: for pA2 Trachea: guinea pig trachea, carbachol tension, isoproterenol, 60 minute incubation, pA2 = -log KB; for Kb: read-out: pA2 Trachea (converted)
Method: Each tissue was suspended between a fixed glass rod and a Statham® Universal Transducer connected to a Beckman® recorder. Atria were allowed to beat spontaneously under a loading tension of approximately 0.5 gm. Intrinsic depressant for stimulant activity was determined for each compound by progressively increasing concentrations in the tissue baths at 60-minute intervals. Tissues were not washed between increments. […] Changes in rate in response to isoproterenol were measured in the absence and presence of test compounds. Spiral strips of guinea pig trachea were suspended under 5 gm resting tension and incubated with phentolamine, tropolone and cocaine. Active tension was generated by addition of carbachol (3.0×10^-7 M) and decreases in tension in response to isoproterenol were quantitated. Cumulative concentration-response curves were produced with isoproterenol both before and after 60 minute incubation of test compounds with atria and trachea. The blocking potency of test compounds was estimated by computing pA2 values (-log KB) by the method of Furchgott, The Pharmacological Differentiation of Adrenergic Receptors, Ann. […] A ratio greater than one indicates cardioselectivity.

[4] = target: guinea pig right atria (Cavia porcellus, UniProt H0W3H1); test: β-blocking activity in vitro, guinea pig right atria (rate response to isoproterenol); assay type: cell-based; settings: for pA2 Atria: guinea pig right atria, isoproterenol, 60 minute incubation, pA2 = -log KB
Method: Each tissue was suspended between a fixed glass rod and a Statham® Universal Transducer connected to a Beckman® recorder. Atria were allowed to beat spontaneously under a loading tension of approximately 0.5 gm. Intrinsic depressant for stimulant activity was determined for each compound by progressively increasing concentrations in the tissue baths at 60-minute intervals. Tissues were not washed between increments. The maximum concentration showing little or no cardiodepressant activity was chosen for blockade experiments. Changes in rate in response to isoproterenol were measured in the absence and presence of test compounds. Spiral strips of guinea pig trachea were suspended under 5 gm resting tension and incubated with phentolamine, tropolone and cocaine. Active tension was generated by addition of carbachol (3.0×10^-7 M) and decreases in tension in response to isoproterenol were quantitated. Cumulative concentration-response curves were produced with isoproterenol both before and after 60 minute incubation of test compounds with atria and trachea. The blocking potency of test compounds was estimated by computing pA2 values (-log KB) by the method of Furchgott, The Pharmacological Differentiation of Adrenergic Receptors, Ann. […] The degree of cardioselectivity was estimated from the ratio, KB tracheal/KB atrial (10^(pA.sbsp.2^atria-pA.sbsp.2^trachea)). A ratio greater than one indicates cardioselectivity. Test drugs were dissolved in distilled water and added to the bath (30 mL) in a volume of 10 or 100 μL.

[5] = test system: heart rate response to isoproterenol; test: Duration of β-blockade in vivo in anesthetized dogs, 3-hour infusion; set-up: species or system dog; settings: for ED50: Canis lupus familiaris, iv, 3-hour infusion, read-out: Potency (mg/kg/180 min); for ED50 / % I (Percent inhibition of heart rate response to isoproterenol): bolus isoproterenol 0.4 μg/kg; for 80% Recovery Time: after 3-hour infusion; for % I (Percent inhibition of heart rate response to isoproterenol): end of 3-hour infusion
Method: as §1

[6] = Disappearance in vitro in dog whole blood; assay type: in vitro ADME; settings: 50 μg in 1 mL added to 1 mL dog whole blood, 37° C.; read-out: T1/2 Dog Whole Blood
Method: (§2) The rate of disappearance of a compound is expressed as the half-life (T1/2), which is the time period in which one-half of the initial amount of compound tested disappears. In each experiment, 1 mL of a solution containing 50 μg of the test compound was added to 1 mL of whole blood or 1 mL of a 33% (w/v) liver homogenate. […] At the designated time periods, the test mixtures were removed from the incubator and transferred to a 0° C. ice bath. Acetonitrile (2 mL) was immediately added and the mixtures were mixed to stop enzymatic hydrolysis. Zero time samples were prepared by adding 2 mL of acetonrile to denature the proteins prior to addition of the test compounds. […] The half life of each test compound was determined graphically by plotting the decrease in concentration as a function of time.

[7] = Disappearance in vitro in human whole blood; assay type: in vitro ADME; settings: 50 μg in 1 mL added to 1 mL human whole blood, 37° C.; read-out: T1/2 Human Whole Blood
Method: as §2

[8] = Disappearance in vitro in dog liver homogenate; assay type: in vitro ADME; settings: 50 μg in 1 mL added to 1 mL of 33% (w/v) dog liver homogenate, 37° C.; read-out: T1/2 Dog Liver Homogenate
Method: as §2

[9] = ratio KB tracheal/KB atrial, greater than one indicates cardioselectivity
[10] = read-out: pA2 Atria (converted)

guinea pig right atria, sequence (H0W3H1 1-470): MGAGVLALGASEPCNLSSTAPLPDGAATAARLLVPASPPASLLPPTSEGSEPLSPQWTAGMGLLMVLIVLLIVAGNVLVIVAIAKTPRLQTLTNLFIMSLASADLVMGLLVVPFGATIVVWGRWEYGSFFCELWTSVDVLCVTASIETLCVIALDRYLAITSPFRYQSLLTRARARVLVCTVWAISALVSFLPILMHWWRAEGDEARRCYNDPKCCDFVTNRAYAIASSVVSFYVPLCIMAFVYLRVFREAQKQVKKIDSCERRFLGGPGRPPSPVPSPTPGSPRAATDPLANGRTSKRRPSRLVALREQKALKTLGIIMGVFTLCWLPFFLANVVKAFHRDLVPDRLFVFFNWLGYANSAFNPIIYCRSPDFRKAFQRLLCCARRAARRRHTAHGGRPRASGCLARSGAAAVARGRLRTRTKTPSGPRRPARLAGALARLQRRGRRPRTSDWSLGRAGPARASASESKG
guinea pig tracheal strips, sequence (Q8K4Z4 whole entry): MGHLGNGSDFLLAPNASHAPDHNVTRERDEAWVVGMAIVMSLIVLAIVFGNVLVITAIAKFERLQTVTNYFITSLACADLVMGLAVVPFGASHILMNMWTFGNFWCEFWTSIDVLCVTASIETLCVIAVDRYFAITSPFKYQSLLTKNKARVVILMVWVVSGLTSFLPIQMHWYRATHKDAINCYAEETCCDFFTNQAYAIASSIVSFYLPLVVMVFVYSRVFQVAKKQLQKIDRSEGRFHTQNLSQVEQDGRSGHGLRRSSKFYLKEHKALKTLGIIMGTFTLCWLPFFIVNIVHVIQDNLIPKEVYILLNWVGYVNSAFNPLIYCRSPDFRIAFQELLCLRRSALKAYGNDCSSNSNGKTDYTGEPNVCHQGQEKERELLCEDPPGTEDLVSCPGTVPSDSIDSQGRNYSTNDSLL

SMILES: CCOC(=O)CNCC(O)COc1ccccc1 (stereo not shown) [Example I, Ethyl N-(2-Hydroxy-3-phenoxypropyl) glycinate Oxalate]
- Potency (mg/kg/40 min) ([1]; cumulative dose over 40-minute infusion, normalized to 50% inhibition of isoproterenol response, dogs): very low
- Cardioselectivity [2, 9]: 1
- pA2 Trachea [3]: 5.6

SMILES: CCOC(=O)CNCC(O)COc1cccc2ccccc12 (stereo not shown) [Example II, Ethyl N-[[2-Hydroxy-3-(1-naphthoxy]propyl]glycinate Oxalate Hemihydrate]
- 80% Recovery Time ([1]; dogs): 53 ± 11 min

SMILES: CCOC(=O)CCNCC(O)COc1ccccc1 (stereo not shown) [Example III, Ethyl 3-[N-[2-Hydroxy-3-phenoxy)propyl]amino]propionate Oxalate]
- ED50 [1]: 12.6 ± 4.1 mg/kg
- 80% Recovery Time ([1]; dogs): 29 ± 13 min
- Cardioselectivity [2, 9]: 25
- pA2 Trachea [3]: 5.9

SMILES: CCOC(=O)CCCNCC(O)COc1ccccc1 (stereo not shown) [Example IV]
- pA2 Trachea [3]: 6.0

SMILES: CCOC(=O)C(Cc1ccc(O)cc1)NCC(O)COc1ccccc1 (stereo not shown) [Example V, Ethyl N[(2-Hydroxy-3-phenoxy)propyl]tyrosinate]
- pA2 Atria [4]: inactive
- pA2 Trachea [3]: inactive

SMILES: CCOC(=O)CCNCC(O)COc1ccc(Cl)cc1 (stereo not shown) [Example VI, Ethyl 3[N-[3-[4-(chlorophenoxy)-2-hydroxy]propyl]amino]propionate Hydrochloride]
- Cardioselectivity [2, 9]: 6
- pA2 Trachea [3]: 5.6

SMILES: CCOC(=O)CCNCC(O)COc1ccc(CCC(=O)OC)cc1.Cl (stereo not shown) [Example VII, Ethyl 3-[N-[2-Hydroxy-3-[4-[2-(methoxycarbonyl)ethyl]phenoxy]propyl]amino]propionate Hydrochloride]
- Cardioselectivity [2, 9]: > 8
- Kb [4, 10]: 1260 nM
- Kb [3]: > 10000 nM

SMILES: CC(=O)Nc1ccc(OCC(O)CNC(C)C)cc1 (stereo not shown) [Practolol, reference compound]
- 80% Recovery Time ([1]; dogs): 61 min

SMILES: CC(C)NCC(O)COc1cccc2ccccc12 (stereo not shown) [Propranolol, reference compound]
- 80% Recovery Time ([1]; dogs): 46 min

SMILES: CCOC(=O)CCNCC(O)COc1ccccc1C(=O)OC (stereo not shown) [VIII, Ethyl 3-[N-[2-Hydroxy-3-[2-(methoxycarbonyl)phenoxy]propyl]amino]propionateOxalate Hemihydrate]
- ED50 [5]: 27.4 ± 6 mg/kg
- 80% Recovery Time [5]: 10 ± 2 min
- % I (Percent inhibition of heart rate response to isoproterenol) [5]: 53 ± 2%
- Cardioselectivity [2]: 1.0
- Kb [4, 10]: 251 nM
- pA2 Trachea [3]: 6.6

SMILES: Cc1ccccc1OCC(O)CNCCC(=O)Oc1ccc(F)cc1 (stereo not shown) [XIX]
- Kb [4, 10]: 2000 nM

SMILES: CCOC(=O)CCCNCC(O)COc1ccccc1C (stereo not shown) [XI]
- half-life [6]: > 3 h
- ED50 [1]: 3.1 ± 0.7 mg/kg
- 80% Recovery Time ([1]; dogs): 15 ± 2 min
- Cardioselectivity [2, 9]: 5
- half-life [7]: 1.95 ± 0.65 h
- pA2 Trachea [3]: 6.7

SMILES: Cc1ccccc1OCC(O)CNCCC(=O)Oc1ccccc1 (stereo not shown) [XVIII]
- ED50 [5]: 54 ± 14 mg/kg
- 80% Recovery Time [5]: > 60 min
- % I (Percent inhibition of heart rate response to isoproterenol) [5]: 54 ± 8%
- Kb [4, 10]: 398 nM

SMILES: COC(=O)CCNCC(O)COc1ccccc1C (stereo not shown) [XVII]
- ED50 [5]: 4.4 mg/kg
- 80% Recovery Time [5]: 27 ± 4 min
- % I (Percent inhibition of heart rate response to isoproterenol) [5]: 56 ± 4%
- half-life [6]: 0.867 ± 0.15 h
- half-life [8]: 9 ± 8 min
- Cardioselectivity [2]: 1.6
- half-life [7]: 2.47 ± 0.0333 h
- pA2 Trachea [3]: 7.0

SMILES: COC(=O)c1ccc(CNCC(O)COc2ccccc2C)cc1 (stereo not shown) [XVI]
- Cardioselectivity [2, 9]: 1.6
- Kb [3]: 200 nM

SMILES: CCOC(=O)c1ccc(CNCC(O)COc2ccccc2C)cc1 (stereo not shown) [XV]
- half-life [6]: > 3 h
- half-life [8]: 9 ± 6 min
- Cardioselectivity [2]: 5
- half-life [7]: > 3 h
- Kb [3]: 1260 nM

SMILES: CCOC(=O)CCNCC(O)COc1cccc(C)c1 (stereo not shown) [XXIII]
- Cardioselectivity [2, 9]: 1.6
- pA2 Trachea [3]: 6.5

SMILES: CCOC(=O)CCNCC(O)COc1cccc(OC)c1 (stereo not shown) [XXIV]
- Cardioselectivity [2, 9]: .5
- pA2 Trachea [3]: 6.7

SMILES: COC(=O)CCNCC(O)COc1cccc2ccccc12 (stereo not shown) [XXIX]
- Cardioselectivity [2, 9]: 0.3
- Kb [3]: 25.1 nM

SMILES: COc1ccc(CCOC(=O)CCNCC(O)COc2ccccc2C)cc1OC (stereo not shown) [XXVIII]
- ED50 [5]: 168 mg/kg
- 80% Recovery Time [5]: > 60 min
- % I (Percent inhibition of heart rate response to isoproterenol) [5]: 85%
- Cardioselectivity [2]: 2.5
- pA2 Atria [4]: 7.0
- pA2 Trachea [3]: 6.6

SMILES: CCOC(=O)CNCC(O)COc1ccccc1C (stereo not shown) [XXVII]
- Cardioselectivity [2, 9]: 0.5
- pA2 Trachea [3]: 6.2

SMILES: CCOC(=O)CCNCC(O)COc1c(C)cccc1C (stereo not shown) [XXVI]
- Kb [4, 10]: 794 nM

SMILES: Cc1ccccc1OCC(O)CNCCC(=O)OCC(F)(F)F (stereo not shown) [XX]
- Kb [4, 10]: 2000 nM
